Experimental data: patent publication US20250346602A1, “LACTAM SUBSTITUTED IMIDAZOPYRIDAZINE IL-17A MODULATORS AND USES THEREOF” (DICE ALPHA, INC., priority 2022, published 2025)

Each compound was assayed against T1, IL-17A/A (Homo sapiens, UniProt Q16552) (assay: IL-17A/A HEK-Blue cell assay). Conditions: HEK-Blue IL-17A reporter cell line (HEK 293), IL-17A/A stimulation, 20 hours incubation, SEAP read at A630.
T1 construct: purchased Genscript Z03228
T1 sequence (Q16552 24-155): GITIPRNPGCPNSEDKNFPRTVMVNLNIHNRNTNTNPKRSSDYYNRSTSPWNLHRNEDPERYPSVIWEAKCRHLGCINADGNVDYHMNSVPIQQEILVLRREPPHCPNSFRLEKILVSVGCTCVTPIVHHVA
Assay type: cell-based
Method in brief: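 IC50 came from a 4-parameter fit of SEAP read at A630 (Quanti-Blue). Compound was titrated to a top final concentration of 10, 1 or 0.3 uM with 0.1% final DMSO and added just before IL-17A/A. Incubation lasted 20 hours in HEK293 cells engineered with IL-17RA, IL-17RC, Act1 and an NFκB-SEAP reporter.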

Structure (SMILES)	IC50
CC[C@@H](c1ccc(F)cc1)[C@H](NC(=O)c1ccnn1CC)c1cn2ncc(CC3C[C@@H](C(F)(F)F)NC3=O)cc2n1 (single isomer, unassigned) [Compound 218]	< 100 nM
O=C(N[C@H](c1cn2ncc(CC3C[C@@H](C(F)(F)F)NC3=O)cc2n1)C1CCC(F)(F)CC1)c1conc1C1CC1 (single isomer, unassigned) [Compound 219]	< 100 nM
Cc1nonc1C(=O)N[C@H](c1cn2nc(CC3CCCNC3=O)ccc2n1)C1CCCCCC1 (stereo partly drawn) [Compound 2, N-((1S)-cycloheptyl(6-((2-oxopiperidin-3-yl)methyl)imidazo[1,2-b]pyridazin-2-yl)methyl)-4-methyl-1,2,5-oxadiazole-3-carboxamide]	> 1000 nM
CCn1nccc1C(=O)N[C@H](c1cn2nc(CC3CC(C(F)(F)F)CNC3=O)ccc2n1)C1CCCCCC1 (stereo partly drawn) [Compound 3, N-((1 S)-cycloheptyl(6-((2-oxo-5-(trifluoromethyl)piperidin-3-yl)methyl)imidazo[1,2-b]pyridazin-2-yl)methyl)-1-ethyl-1H-pyrazole-5-carboxamide]	< 100 nM
CCn1nccc1C(=O)N[C@H](c1cn2nc(CC3C[C@@H](C(F)(F)F)NC3=O)ccc2n1)C1CCC(F)(F)CC1 (stereo partly drawn) [Compound 7, N-((1S)-(4,4-difluorocyclohexyl)(6-(((5S)-2-oxo-5-(trifluoromethyl)pyrrolidin-3-yl)methyl)imidazo[1,2-b]pyridazin-2-yl)methyl)-1-ethyl-1H-pyrazole-5-carboxamide]	100 to 1000 nM
Cc1nonc1C(=O)N[C@H](c1cn2nc(C[C@H]3C[C@@H](C(F)(F)F)NC3=O)ccc2n1)C1CCC(F)(F)CC1 [Compound 18, N—((S)-(4,4-difluorocyclohexyl)(6-(((3R,5S)-2-oxo-5-(trifluoromethyl)pyrrolidin-3-yl)methyl)imidazo[1,2-b]pyridazin-2-yl)methyl)-4-methyl-1,2,5-oxadiazole-3-carboxamide]	> 1000 nM
CCc1nonc1C(=O)N[C@H](c1cn2nc(C[C@H]3C[C@@H](C(F)(F)F)NC3=O)ccc2n1)C(C1CC1)C1CC1 [Compound 20, N—((S)-2,2-dicyclopropyl-1-(6-(((3R,5S)-2-oxo-5-(trifluoromethyl)pyrrolidin-3-yl)methyl)imidazo[1,2-b]pyridazin-2-yl)ethyl)-4-ethyl-1,2,5-oxadiazole-3-carboxamide]	100 to 1000 nM
CCc1nonc1C(=O)N[C@H](c1cn2nc(C[C@H]3CCCNC3=O)ccc2n1)C(C1CC1)C1CC1 [Compound 35, N—((S)-2,2-dicyclopropyl-1-(6-(((R)-2-oxopiperidin-3-yl)methyl)imidazo[1,2-b]pyridazin-2-yl)ethyl)-4-ethyl-1,2,5-oxadiazole-3-carboxamide]	100 to 1000 nM
Cc1nonc1C(=O)N[C@H](c1cn2nc(C[C@H]3CCCNC3=O)ccc2n1)C(C1CC1)C1CC1 [Compound 36, N—((S)-2,2-dicyclopropyl-1-(6-(((R)-2-oxopiperidin-3-yl)methyl)imidazo[1,2-b]pyridazin-2-yl)ethyl)-4-methyl-1,2,5-oxadiazole-3-carboxamide]	> 1000 nM
CCn1nccc1C(=O)N[C@H](c1cn2nc(CC3CC(C)(C)CNC3=O)ccc2n1)[C@H]1CC[C@H](C)CC1 (stereo partly drawn) [Compound 58, N-((1S)-(6-((5,5-dimethyl-2-oxopiperidin-3-yl)methyl)imidazo[1,2-b]pyridazin-2-yl)((1r,4S)-4-methylcyclohexyl)methyl)-1-ethyl-1H-pyrazole-5-carboxamide]	> 1000 nM
CCn1nccc1C(=O)N[C@H](c1cn2nc(CC3CC(F)(F)CNC3=O)c(NC(=O)OC)cc2n1)C1CCC(F)(F)CC1 (stereo partly drawn) [Compound 72, methyl (6-((5,5-difluoro-2-oxopiperidin-3-yl)methyl)-2-((S)-(4,4-difluorocyclohexyl)(1-ethyl-1H-pyrazole-5-carboxamido)methyl)imidazo[1,2-b]pyridazin-7-yl)carbamate]	100 to 1000 nM
CCn1nccc1C(=O)N[C@H](c1cn2nc(C[C@H]3C[C@@H](C(F)(F)F)CNC3=O)c(C#N)cc2n1)C1CCC(F)(F)CC1 [Compound 81]	100 to 1000 nM
CCn1nccc1C(=O)N[C@H](c1cn2nc(CC3C[C@@H](C(F)(F)F)CNC3=O)c(COC)cc2n1)C1CCC(F)(F)CC1 (stereo partly drawn) [Compound 84, N-((1S)-(4,4-difluorocyclohexyl)(7-(methoxymethyl)-6-(((5R)-2-oxo-5-(trifluoromethyl)piperidin-3-yl)methyl)imidazo[1,2-b]pyridazin-2-yl)methyl)-1-ethyl-1H-pyrazole-5-carboxamide]	100 to 1000 nM
CCn1nccc1C(=O)N[C@H](c1cn2nc(CC3C[C@@H](C(F)(F)F)CNC3=O)ccc2n1)C1CCC(F)(F)CC1 (stereo partly drawn) [Compound 95, N-((1S)-(4,4-difluorocyclohexyl)(6-(((5R)-2-oxo-5-(trifluoromethyl)piperidin-3-yl)methyl)imidazo[1,2-b]pyridazin-2-yl)methyl)-1-ethyl-1H-pyrazole-5-carboxamide]	100 to 1000 nM

Further lines, results first:

IC50	Structure (SMILES)
> 1000 nM	CC[C@@H](c1ccc(F)cc1)[C@H](NC(=O)c1ccnn1CC)c1cn2ncc(CC3C[C@@H](C(F)(F)F)NC3=O)cc2n1 (single isomer, unassigned) [Compound 217]
100 to 1000 nM	CCc1nonc1C(=O)N[C@H](c1cn2nc(C[C@H]3C[C@@H](C(F)(F)F)NC3=O)ccc2n1)C1CCC(F)(F)CC1 [Compound 17, N—((S)-(4,4-difluorocyclohexyl)(6-(((3R,5S)-2-oxo-5-(trifluoromethyl)pyrrolidin-3-yl)methyl)imidazo[1,2-b]pyridazin-2-yl)methyl)-4-ethyl-1,2,5-oxadiazole-3-carboxamide]
> 1000 nM	Cc1nonc1C(=O)N[C@H](c1cn2nc(C[C@H]3C[C@@H](C(F)(F)F)NC3=O)ccc2n1)C(C1CC1)C1CC1 [Compound 21, N—((S)-2,2-dicyclopropyl-1-(6-(((3R,5S)-2-oxo-5-(trifluoromethyl)pyrrolidin-3-yl)methyl)imidazo[1,2-b]pyridazin-2-yl)ethyl)-4-methyl-1,2,5-oxadiazole-3-carboxamide]
100 to 1000 nM	CC[C@@H](c1ccc(F)cc1)[C@H](NC(=O)c1ccnn1CC)c1cn2nc(C[C@H]3C[C@@H](C(F)(F)F)NC3=O)ccc2n1 [Compound 22, 1-ethyl-N-((1S,2S)-2-(4-fluorophenyl)-1-(6-(((3R,5S)-2-oxo-5-(trifluoromethyl)pyrrolidin-3-yl)methyl)imidazo[1,2-b]pyridazin-2-yl)butyl)-1H-pyrazole-5-carboxamide]
> 1000 nM	CCc1nonc1C(=O)N[C@H](c1cn2nc(C[C@H]3CCCNC3=O)ccc2n1)C1CCC(F)(F)CC1 [Compound 37, N—((S)-(4,4-difluorocyclohexyl)(6-(((R)-2-oxopiperidin-3-yl)methyl)imidazo[1,2-b]pyridazin-2-yl)methyl)-4-ethyl-1,2,5-oxadiazole-3-carboxamide]
> 1000 nM	Cc1nonc1C(=O)N[C@H](c1cn2nc(C[C@H]3CCCNC3=O)ccc2n1)C1CCC(F)(F)CC1 [Compound 38, N—((S)-(4,4-difluorocyclohexyl)(6-(((R)-2-oxopiperidin-3-yl)methyl)imidazo[1,2-b]pyridazin-2-yl)methyl)-4-methyl-1,2,5-oxadiazole-3-carboxamide]
100 to 1000 nM	CCn1nccc1C(=O)N[C@H](c1cn2nc(C[C@@H]3CCCNC3=O)ccc2n1)[C@H]1CC[C@H](C)CC1 [Compound 39, 1-ethyl-N—((S)-((1r,4S)-4-methylcyclohexyl)(6-(((S)-2-oxopiperidin-3-yl)methyl)imidazo[1,2-b]pyridazin-2-yl)methyl)-1H-pyrazole-5-carboxamide]
100 to 1000 nM	CC[C@@H]1CC(Cc2ccc3nc([C@@H](NC(=O)c4ccnn4CC)[C@H]4CC[C@H](C)CC4)cn3n2)C(=O)N1 (stereo partly drawn) [Compound 59, 1-ethyl-N-((1S)-(6-(((5R)-5-ethyl-2-oxopyrrolidin-3-yl)methyl)imidazo[1,2-b]pyridazin-2-yl)((1r,4S)-4-methylcyclohexyl)methyl)-1H-pyrazole-5-carboxamide]
100 to 1000 nM	CCn1nccc1C(=O)N[C@H](c1cn2nc(CC3CC4(CC4)NC3=O)ccc2n1)C(C1CC1)C1CC1 (stereo partly drawn) [Compound 60, N-((1S)-2,2-dicyclopropyl-1-(6-((5-oxo-4-azaspiro[2.4]heptan-6-yl)methyl)imidazo[1,2-b]pyridazin-2-yl)ethyl)-1-ethyl-1H-pyrazole-5-carboxamide]
100 to 1000 nM	CCn1nccc1C(=O)N[C@H](c1cn2nc(CC3C(=O)NC4CC3C4)ccc2n1)[C@H]1CC[C@H](C)CC1 (stereo partly drawn) [Compound 61, 1-ethyl-N-((1S)-((1r,4S)-4-methylcyclohexyl)(6-((3-oxo-2-azabicyclo[3.1.1]heptan-4-yl)methyl)imidazo[1,2-b]pyridazin-2-yl)methyl)-1H-pyrazole-5-carboxamide]
> 1000 nM	CCn1nccc1C(=O)N[C@H](c1cn2nc(CC3CC(F)(F)CNC3=O)c(OC)cc2n1)C1CCC(F)(F)CC1 (stereo partly drawn) [Compound 75, N-((1S)-(6-((5,5-difluoro-2-oxopiperidin-3-yl)methyl)-7-methoxyimidazo[1,2-b]pyridazin-2-yl)(4,4-difluorocyclohexyl)methyl)-1-ethyl-1H-pyrazole-5-carboxamide]
100 to 1000 nM	CCn1nccc1C(=O)N[C@H](c1cn2nc(CC3C[C@@H](C(F)(F)F)CNC3=O)ccc2n1)C(C1CC1)C1CC1 (stereo partly drawn) [Compound 96, N-((1S)-2,2-dicyclopropyl-1-(6-(((5R)-2-oxo-5-(trifluoromethyl)piperidin-3-yl)methyl)imidazo[1,2-b]pyridazin-2-yl)ethyl)-1-ethyl-1H-pyrazole-5-carboxamide]
100 to 1000 nM	CCn1nccc1C(=O)N[C@H](c1cn2nc(CC3C[C@@H](C(F)(F)F)CNC3=O)ccc2n1)[C@H]1CC[C@H](C)CC1 (stereo partly drawn) [Compound 97, 1-ethyl-N-((1S)-((1R.4S)-4-methylcyclohexyl)(6-(((5R)-2-oxo-5-(trifluoromethyl)piperidin-3-yl)methyl)imidazo[1,2-b]pyridazin-2-yl)methyl)-1H-pyrazole-5-carboxamide]
